Row | Compound | melting point
1 | Cc1nc(-c2ccccc2)c(N)n1C | 145 to 147 °C
2 | O=C(O)c1c[nH]nc1-c1ccc(Cl)cc1 | 276 to 278 °C
3 | Oc1ccc(CN2CCCC2)c2cccnc12 | 112 to 114 °C
4 | O=C(CCl)Nc1c(Cl)cccc1Cl | 178 to 180 °C
5 | O=C(O)c1ccc(-c2cnccn2)cn1 | 199 to 201 °C
6 | CCCCS(=O)(=O)NCC(=O)O | 65 to 67 °C
7 | CCn1c(S)nc2ccccc21 | 135 to 137 °C
8 | N#Cc1ccc(NC(N)=O)cc1 | 234 to 236 °C
9 | CC(=O)CC(=O)Nc1ccc(Br)cc1 | 137 to 139 °C
10 | O=C1OC(C=Cc2ccccc2)=NC1=Cc1cccnc1 | 165 to 167 °C
11 | NS(=O)(=O)c1cn[nH]c1 | 200 to 202 °C
12 | O=C(CN1CCCC1)Nc1c(I)cc(I)cc1I | 184 to 186 °C
13 | CON=C(C(=O)N[C@@H]1C(=O)N2C(C(=O)O)=C(CSc3nnnn3C)CS[C@H]12)c1csc(N)n1 | 159 to 161 °C
14 | Cc1ccnc2[nH]c(CCl)nc12 | 274 to 276 °C
15 | O=C1NC(=O)C(CCS)N1 (centres undefined) | 133 to 135 °C
16 | Nc1ccc(-n2nccn2)nc1 | 82 to 84 °C
17 | CCNCC(O)c1ccc(C)cc1 (centres undefined) | 88 to 90 °C
18 | Cn1c(CO)nc2cc(C(F)(F)F)ccc21 | 170 to 172 °C
19 | COc1ccccc1NS(=O)(=O)c1ccc(N2CCOCC2)c(N)c1 | 150 to 152 °C
20 | COc1ccc(C(C)=CC(=O)O)cc1 | 108 to 110 °C
21 | Cc1ccccc1C(N)CC(=O)O (centres undefined) | 225 to 227 °C
22 | O=C(NCCc1ccccc1)n1ccnc1 | 103 to 105 °C
23 | O=C(Nc1ccccc1Cl)c1c[nH]c2ccccc12 | 213 to 215 °C
24 | Fc1cccc2c(CBr)csc12 | 74 to 76 °C

Row | Compound | melting point
25 | O=C(O)CCCS(=O)c1ccc(Br)cc1 (centres undefined) | 121 to 123 °C
26 | OC(c1ccccc1)c1cccnc1 (centres undefined) | 59 to 61 °C
27 | CSc1ccc(CC(=O)O)cc1 | 97 to 98 °C
28 | Cc1ccc(S(N)(=O)=O)c(C)c1 | 139 to 141 °C
29 | Cc1cc(N)c2cc(N)ccc2n1 | 212 to 214 °C
30 | CC(C)c1c(C(=O)O)nnn1-c1ccc(F)cc1 | 146 to 148 °C
31 | COc1cccc2c1OCC(C(=O)O)=C2 | 239 to 241 °C
32 | CC(C)(C)c1ccc(S(=O)(=O)CCN)cc1 | 46 to 48 °C
33 | NC(=S)c1cnc2ccccn12 | 214 to 216 °C
34 | CC(C)C(=O)NC(C)C(=O)O (centres undefined) | 154 to 156 °C
35 | COCCOc1ccc(-n2nc(C)c(C(=O)O)n2)cc1 | 157 to 159 °C
36 | CC(C)CN(C(=O)CCl)c1c(N)n(CC(C)C)c(=O)[nH]c1=O | 153 to 155 °C
37 | Fc1cc(Br)cc2c(Cl)cc(C(F)(F)F)nc12 | 91 to 93 °C
38 | COC(=O)c1[nH]c(=O)[nH]c1C | 229 to 231 °C
39 | Cc1ccc(-n2ccnc2)c(C(=O)O)c1 | 259 to 261 °C
40 | Cc1cccc(C2CC2C(=O)O)c1 (centres undefined) | 88 to 90 °C
41 | COCCOc1ccc(C(=O)O)cc1 | 151 to 153 °C
42 | O=C(CCl)Nc1cc(C2CC2)nn1-c1ccccc1 | 120 to 122 °C
43 | Cc1ccc(COc2cccc(N)c2)cc1 | 81 to 83 °C
44 | O=[N+]([O-])c1ccn(CCBr)n1 | 50 to 52 °C
45 | NCc1ccc(N2CCN(c3ncccn3)CC2)c(F)c1 | 90 to 92 °C
46 | CNC(=O)c1ccc(Cl)c(N)c1 | 144 to 146 °C
47 | NNS(=O)(=O)c1ccc(OC(F)(F)F)cc1 | 105 to 107 °C
48 | COc1ccc(C)cc1N1CC(C(=O)O)CC1=O (centres undefined) | 171 to 173 °C

Row | Compound | melting point
49 | CCCCc1nnc(N)o1 | 139 to 141 °C
50 | CC1CCCC(C)N1S(=O)(=O)c1ccc(N)cc1 (centres undefined) | 215 to 217 °C
51 | CSc1nc(C)cc(C(=O)O)n1 | 152 to 154 °C
52 | NNc1nccc2sccc12 | 191 to 193 °C
53 | NC(=O)c1c(N)sc2c1CCC2 | 158 to 160 °C
54 | CC(C)n1ncc2cc(N)cnc21 | 85 to 87 °C
55 | O=C(CC(F)(F)F)c1ccc(Cl)cc1 | 39 to 41 °C
56 | Cc1nc2scc(C)n2c1C=O | 153 to 155 °C
57 | CC(C)(C)OC(=O)NCc1nc(-c2ccc(N)cc2)n[nH]1 | 214 to 216 °C
58 | NCc1cccc(NS(=O)(=O)c2ccc(Cl)cc2)c1 | 186 to 188 °C
59 | CN(c1ccccc1C(=O)O)S(C)(=O)=O | 146 to 148 °C
60 | CN1CC(=O)N(CC(=O)Nc2ccccc2)C1=O | 279 to 281 °C
61 | O=C(Nc1ccc(O)cc1C(=O)O)OCc1ccccc1 | 176 to 178 °C
62 | CCN(C)c1ccc(C(C)=O)cc1 | 41 to 43 °C
63 | Nc1c(-c2ccccn2)nc2ccccn12 | 199 to 201 °C
64 | CN(Cc1cnn(C)c1)C(=O)CCl | 35 to 37 °C
65 | Cc1cc(S(N)(=O)=O)c(F)cc1F | 97 to 99 °C
66 | CCc1ccc(-c2csc(N)n2)s1 | 92 to 94 °C
67 | Cc1c[nH]c(=O)n1-c1ccccc1F | 211 to 213 °C
68 | CN(C)c1ccc(/C=C/C(=O)c2ccc([N+](=O)[O-])cc2)cc1 | 213 to 215 °C
69 | NC(=NO)c1ccc(CN2CCOCC2)cc1 | 158 to 160 °C
70 | NS(=O)(=O)c1ccc(F)c(C(=O)O)c1F | 139 to 141 °C
71 | O=C(O)c1ccc(NS(=O)(=O)C(F)(F)F)cc1 | 226 to 228 °C
72 | O=S(=O)(Cl)c1ccc(OCC(F)F)cc1 | 42 to 44 °C

Row | Compound | melting point
73 | Fc1ccc(-c2nc(CCl)no2)cc1 | 51 to 55 °C
74 | COc1ccc(Cc2nnc(S)o2)cc1OC | 202 to 204 °C
75 | COc1ccc(N)cc1-n1nnnc1C | 130 to 132 °C
76 | O=S(=O)(NC1CC1)c1ccc(Cl)nc1 | 94 to 96 °C
77 | CCOc1ncccc1C(=O)O | 90 to 92 °C
78 | O=C(O)C=C(C1CC1)C1CC1 | 134 to 136 °C
79 | NS(=O)(=O)c1cc(F)ccc1Br | 170 to 172 °C
80 | CC1CCCN1CC(=O)O (centres undefined) | 167 to 169 °C
81 | Cc1nn(-c2ccc(F)cc2)c(C)c1C(=O)O | 219 to 221 °C
82 | Cc1cccc(C(=O)Nc2cccc(O)c2)n1 | 177 to 179 °C
83 | S=C(Nc1ccccc1)N1CCCCC1 | 99 to 101 °C
84 | Cc1cc(Cl)cc2nc(S)oc12 | 253 to 255 °C
85 | Cc1oc(-c2cccs2)nc1CCl | 65 to 67 °C
86 | COC(=O)Cc1nn[nH]n1 | 154 to 156 °C
87 | CC(=O)c1ccc(C#N)c(F)c1 | 62 to 64 °C
88 | O=C(CCl)c1cn(-c2cccc(C(F)(F)F)c2)nn1 | 162 to 164 °C
89 | Cn1ncc2c(=O)[nH]c(CCl)nc21 | 232 to 234 °C
90 | O=C(CCl)N1CCCC1=O | 33 to 35 °C
91 | Nc1cccc(S(=O)(=O)Nc2ccccc2Cl)c1 | 110 to 112 °C
92 | Cn1cnc(S(=O)(=O)NCC(=O)O)c1 | 211 to 213 °C
93 | OC(c1ccccc1)c1nc2cc(Cl)ccc2[nH]1 (centres undefined) | 184 to 186 °C
94 | O=C(O)c1cccc(NC(=O)c2ccc(Br)cc2)c1 | 306 to 308 °C
95 | CC(C)C(Oc1ccc(F)cc1F)C(=O)O (centres undefined) | 67 to 69 °C
96 | NNC(=O)c1ccc2ccccc2n1 | 133 to 135 °C

Row | Compound | melting point
97 | O=C(O)c1cc(Cl)nc(Cl)n1 | 114 to 116 °C
98 | Cc1cc(C)nc(-n2nc(C)cc2NC(=O)CCl)n1 | 185 to 187 °C
99 | NCc1nnc2n1CCCC2C(F)(F)F (centres undefined) | 81 to 83 °C
100 | CC(=O)Nc1cccc(N=C=S)c1 | 154 to 156 °C
101 | O=C1CNC(=O)N1Cc1ccc(Cl)c([N+](=O)[O-])c1 | 183 to 185 °C
102 | O=C(O)CCC(=O)N1CCOCC1 | 61 to 65 °C
103 | CC(C)(C#N)NC(=O)c1ccccc1 | 166 to 168 °C
104 | Nc1ccn(-c2ccccc2)n1 | 77 to 79 °C
105 | NNC(=O)CCSc1ccc(F)cc1 | 98 to 100 °C
106 | CS(=O)(=O)CCCS(=O)(=O)Cl | 62 to 64 °C
107 | Cc1n[nH]c(C(F)(F)Cl)c1C(=O)O | 260 to 262 °C
108 | Cc1c(NC(=O)CCCl)c(=O)n(-c2ccccc2)n1C | 207 to 209 °C
109 | NS(=O)(=O)c1ccc(N2CCC(C(=O)O)CC2)c([N+](=O)[O-])c1 | 181 to 183 °C
110 | O=S(=O)(c1ccc(CCl)cc1)C(F)F | 63 to 65 °C
111 | N#Cc1cc(CO)ccn1 | 109 to 111 °C
112 | O=[N+]([O-])c1ccc(S)nc1 | 169 to 171 °C
113 | Cc1noc(-c2ccnc(Cl)c2)n1 | 65 to 67 °C
114 | O=C(O)CCCc1ccc(Cl)c(Cl)c1 | 69 to 71 °C
115 | Cc1ccc(CN2CC(C(=O)O)CC2=O)cc1 (centres undefined) | 152 to 156 °C
116 | CC(Cl)C(=O)Nc1c(Cl)cc(Cl)cc1Cl (centres undefined) | 153 to 155 °C
117 | O=Cc1cn(-c2ccccc2)nc1-c1cc2ccccc2oc1=O | 223 to 225 °C
118 | CC(C)NC(=O)c1cn[nH]c1N | 179 to 181 °C
119 | Fc1cc(CCl)c2c(c1)COC(c1ccsc1)O2 (centres undefined) | 77 to 79 °C
120 | O=[N+]([O-])c1cnn(CCCl)c1 | 55 to 57 °C

Row | Compound | melting point
121 | CN(C)c1ccc(S(=O)(=O)N(C)C)cc1N | 143 to 145 °C
122 | [N-]=[N+]=NC(=O)c1ccco1 | 60 to 62 °C
123 | O=C(O)C1CSC(c2ccsc2)N1 (centres undefined) | 144 to 146 °C
124 | O=C(O)CCc1nnc(-c2cc(F)ccc2Br)o1 | 153 to 155 °C
125 | CN1CCN(c2ncc(Br)cc2CO)CC1 | 140 to 142 °C
126 | O=C(O)c1occc1CN1C(=O)Cc2ccccc21 | 203 to 205 °C
127 | Cc1cccc(I)c1C(=O)O | 116 to 118 °C
128 | Nc1ccc(CN2CCN(Cc3ccccc3)CC2)cc1 | 96 to 98 °C
129 | Nc1ccc(-c2nccn2C(F)F)cc1 | 84 to 86 °C
130 | O=C(O)c1cc(N/N=C/c2ccccc2Br)ccc1Cl | 180 to 182 °C
131 | O=C(O)c1oc2cc(Cl)ccc2c1-c1ccccc1 | 229 to 231 °C
132 | Fc1ccc(-c2n[nH]cc2Br)cc1 | 141 to 143 °C
133 | CCC(C)C(N)C(N)=O (centres undefined) | 76 to 78 °C
134 | O=C(O)Cc1ccc(S(=O)(=O)C(F)F)cc1 | 139 to 141 °C
135 | Cc1cc(C)n2nc(Br)nc2n1 | 185 to 187 °C
136 | Cc1cc(N)n(-c2cc(Cl)ncn2)n1 | 171 to 173 °C
137 | CC(CN(C)C(=O)OC(C)(C)C)C(N)=NO (centres undefined) | 124 to 126 °C
138 | Cc1cc(C)c(CBr)c(C)c1 | 49 to 51 °C
139 | OCCCc1nc2ncccn2n1 | 76 to 78 °C
140 | O=S1(=O)NN=Cc2ccccc21 | 141 to 143 °C
141 | Clc1ccc(NCc2cccnc2)cc1 | 98 to 100 °C
142 | O=C(CCl)Nc1ccc(F)cc1Cl | 76 to 78 °C
143 | Cn1c(NN)nc2ccccc2c1=O | 150 to 152 °C
144 | CCNC(c1cccnc1)c1ccc2c(c1)CCO2 (centres undefined) | 50 to 52 °C

— a melting point compilation (Tetko et al.)
